Data on 6 compounds can be found in ChEMBL document CHEMBL1201862, “PubChem BioAssay data set” (2004).

Assay [1] concerns the target T1, Bcl-2-related protein A1 (Mus musculus, UniProt Q07440).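 Further: confirmatory dose–response counterscreen on Bfl-1, used to check hits from a UBC13 polyubiquitin inhibitor campaign.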
T1 sequence (Q07440 whole entry): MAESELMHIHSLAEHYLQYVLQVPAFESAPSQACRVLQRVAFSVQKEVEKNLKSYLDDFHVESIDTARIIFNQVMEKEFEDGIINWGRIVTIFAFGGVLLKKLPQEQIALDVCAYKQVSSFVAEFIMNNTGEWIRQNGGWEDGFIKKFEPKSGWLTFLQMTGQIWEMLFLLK
It counts as functional.

Assay [2] has as its target T2, Ubiquitin-conjugating enzyme E2 N (Homo sapiens, UniProt P61088).
T2 sequence (P61088 whole entry): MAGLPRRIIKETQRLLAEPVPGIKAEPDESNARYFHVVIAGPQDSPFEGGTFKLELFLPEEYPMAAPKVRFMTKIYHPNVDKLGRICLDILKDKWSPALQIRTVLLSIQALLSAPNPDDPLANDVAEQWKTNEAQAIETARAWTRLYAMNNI
The class given is functional.

The target in assay [3] is T2, Ubiquitin-conjugating enzyme E2 N. It counts as functional. This is another data set of the same source.
Assay [4] has as its target T3, Mannose-6-phosphate isomerase (Homo sapiens, UniProt P34949).
T3 sequence (P34949 whole entry): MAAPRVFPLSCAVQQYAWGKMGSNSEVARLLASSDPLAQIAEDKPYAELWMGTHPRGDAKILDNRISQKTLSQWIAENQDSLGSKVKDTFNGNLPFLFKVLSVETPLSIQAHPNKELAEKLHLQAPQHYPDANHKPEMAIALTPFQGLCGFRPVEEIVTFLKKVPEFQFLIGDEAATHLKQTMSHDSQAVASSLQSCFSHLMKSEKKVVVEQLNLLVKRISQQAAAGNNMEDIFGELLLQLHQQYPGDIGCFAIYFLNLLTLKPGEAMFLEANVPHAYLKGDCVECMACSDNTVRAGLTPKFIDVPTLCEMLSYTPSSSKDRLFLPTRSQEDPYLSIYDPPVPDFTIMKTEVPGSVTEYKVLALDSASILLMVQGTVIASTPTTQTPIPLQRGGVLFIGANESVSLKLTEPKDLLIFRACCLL
Briefly: MPI enzyme activity inhibition – biochemical, fluorescence intensity, coupled assay, primary screen (AID 1209).

Assay [5] has as its target T3, Mannose-6-phosphate isomerase. The assay can be described thus: phosphomannose isomerase inhibition – biochemical, fluorescence intensity, confirmation (AID 1535).
Assay [6] deals with Phosphomannomutase 2 (Homo sapiens, UniProt O15305). Briefly: Counter screen SAR assay for PMM2 inhibitors via a fluorescence intensity assay. [Related pubchem assays (depositor defined):AID1545, AID1574]. In general terms: Counterscreens check selectivity or assay interference.
Sequence of Phosphomannomutase 2 (O15305 whole entry): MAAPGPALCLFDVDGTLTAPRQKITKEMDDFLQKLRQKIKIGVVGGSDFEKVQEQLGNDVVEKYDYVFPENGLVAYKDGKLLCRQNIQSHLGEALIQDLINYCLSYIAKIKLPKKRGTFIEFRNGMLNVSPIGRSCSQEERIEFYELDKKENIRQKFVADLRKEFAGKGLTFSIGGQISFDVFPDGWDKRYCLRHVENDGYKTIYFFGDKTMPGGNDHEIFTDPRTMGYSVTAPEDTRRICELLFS
The target of assay [7] is G-protein coupled receptor 55 (Homo sapiens, UniProt Q9Y2T6). Briefly: blockers of GPR55 signalling, imaged – imaging, image-based, counter-screen for GPR35 antagonist project, SAR follow-up (AID 2397). The class given is functional.
Sequence of G-protein coupled receptor 55 (Q9Y2T6 whole entry): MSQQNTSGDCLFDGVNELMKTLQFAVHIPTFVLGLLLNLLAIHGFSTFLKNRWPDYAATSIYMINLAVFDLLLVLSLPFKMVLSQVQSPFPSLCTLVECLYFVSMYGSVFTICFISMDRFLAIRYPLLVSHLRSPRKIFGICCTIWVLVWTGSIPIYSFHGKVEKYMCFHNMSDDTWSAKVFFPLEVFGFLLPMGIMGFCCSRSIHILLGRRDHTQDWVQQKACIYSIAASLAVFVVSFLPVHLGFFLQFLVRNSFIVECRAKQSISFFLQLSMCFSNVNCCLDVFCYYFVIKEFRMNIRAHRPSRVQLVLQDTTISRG
Assay [8] in a line: NIH-3T3 fibroblast cytotoxicity, dose response, cytotoxicity control, cell-based, fluorescence, Alamar Blue, secondary assay (AID 2327).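 Further: NIH-3T3 mouse fibroblasts cultured with fluconazole at 8 µg/mL.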 The class given is functional.
The target in assay [9] is SUMO-activating enzyme (Homo sapiens, UniProt Q9UBT2). Briefly: blockers of UBC9-mediated SUMO conjugation – biochemical, AlphaScreen, SUMOylation inhibitor project, confirmation (AID 2018). The class given is functional. On the technique in general: In Alpha technology, singlet oxygen from a donor bead excites a nearby acceptor bead.
Sequence of SUMO-activating enzyme (Q9UBE0 whole entry): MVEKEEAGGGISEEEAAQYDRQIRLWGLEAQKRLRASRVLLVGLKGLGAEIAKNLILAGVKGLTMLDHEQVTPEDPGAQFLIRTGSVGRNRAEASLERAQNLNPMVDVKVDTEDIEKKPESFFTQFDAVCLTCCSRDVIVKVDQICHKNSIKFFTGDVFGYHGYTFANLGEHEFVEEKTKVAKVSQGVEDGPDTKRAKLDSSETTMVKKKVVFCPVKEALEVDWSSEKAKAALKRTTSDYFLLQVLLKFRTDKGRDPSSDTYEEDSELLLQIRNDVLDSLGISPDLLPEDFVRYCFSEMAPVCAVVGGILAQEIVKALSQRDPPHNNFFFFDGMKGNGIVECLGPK
Sequence of SUMO-activating enzyme (Q9UBT2 whole entry): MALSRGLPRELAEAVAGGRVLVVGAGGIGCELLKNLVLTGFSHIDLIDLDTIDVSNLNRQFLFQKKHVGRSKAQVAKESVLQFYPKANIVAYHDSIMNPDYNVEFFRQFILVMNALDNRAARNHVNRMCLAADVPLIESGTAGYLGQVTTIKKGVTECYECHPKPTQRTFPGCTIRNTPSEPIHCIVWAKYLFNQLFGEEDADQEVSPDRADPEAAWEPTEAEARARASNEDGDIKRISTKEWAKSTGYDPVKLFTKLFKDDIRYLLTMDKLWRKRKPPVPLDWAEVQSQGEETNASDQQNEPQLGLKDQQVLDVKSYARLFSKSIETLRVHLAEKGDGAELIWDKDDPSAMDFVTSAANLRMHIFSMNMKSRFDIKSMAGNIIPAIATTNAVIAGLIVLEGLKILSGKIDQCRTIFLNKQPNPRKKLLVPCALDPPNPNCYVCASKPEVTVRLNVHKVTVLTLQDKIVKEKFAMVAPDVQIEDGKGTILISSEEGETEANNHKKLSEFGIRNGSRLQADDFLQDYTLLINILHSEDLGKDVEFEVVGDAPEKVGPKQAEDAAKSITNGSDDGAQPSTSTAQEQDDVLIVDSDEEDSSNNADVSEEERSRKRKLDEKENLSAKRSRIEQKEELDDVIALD
A short description of assay [10]: fluconazole-exposed Candida albicans growth modulators – fluorescence, retest, confirmation (AID 2467). It counts as functional, cell-based.
For assay [11], the target named is T4, Replicative DNA helicase DnaB (Mycobacterium tuberculosis, UniProt P9WMR3).
T4 sequence (P9WMR3 whole entry): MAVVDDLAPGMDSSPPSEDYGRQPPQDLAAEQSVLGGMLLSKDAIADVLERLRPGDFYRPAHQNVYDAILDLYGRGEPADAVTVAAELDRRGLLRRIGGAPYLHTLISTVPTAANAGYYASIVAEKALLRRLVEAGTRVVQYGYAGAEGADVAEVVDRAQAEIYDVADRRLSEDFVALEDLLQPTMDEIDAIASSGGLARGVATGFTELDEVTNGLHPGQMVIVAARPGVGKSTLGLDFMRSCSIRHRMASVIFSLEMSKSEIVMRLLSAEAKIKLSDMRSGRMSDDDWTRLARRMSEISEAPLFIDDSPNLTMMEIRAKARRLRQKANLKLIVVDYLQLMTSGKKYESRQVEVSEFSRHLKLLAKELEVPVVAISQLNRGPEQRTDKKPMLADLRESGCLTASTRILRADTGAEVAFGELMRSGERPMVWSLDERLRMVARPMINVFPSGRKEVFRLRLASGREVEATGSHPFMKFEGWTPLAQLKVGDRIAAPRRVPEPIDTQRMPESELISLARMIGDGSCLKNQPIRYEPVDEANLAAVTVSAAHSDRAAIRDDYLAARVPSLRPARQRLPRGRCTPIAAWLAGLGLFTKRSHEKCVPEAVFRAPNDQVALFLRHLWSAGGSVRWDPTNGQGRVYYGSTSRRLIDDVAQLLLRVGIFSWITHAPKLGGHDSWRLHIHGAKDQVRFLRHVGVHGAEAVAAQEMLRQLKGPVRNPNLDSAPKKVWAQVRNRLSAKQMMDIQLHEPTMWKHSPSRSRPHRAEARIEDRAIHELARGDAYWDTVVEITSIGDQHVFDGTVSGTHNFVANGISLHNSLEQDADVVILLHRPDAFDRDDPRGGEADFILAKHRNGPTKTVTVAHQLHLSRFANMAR
The assay can be described thus: DnaB intein splicing inhibitors, dose response, biochemical, cell-free fluorescence (AID 449749). It counts as functional.

Assay [12] has as its target T5, Apoptotic protease-activating factor 1 (Homo sapiens, UniProt O14727).
T5 sequence (O14727 whole entry): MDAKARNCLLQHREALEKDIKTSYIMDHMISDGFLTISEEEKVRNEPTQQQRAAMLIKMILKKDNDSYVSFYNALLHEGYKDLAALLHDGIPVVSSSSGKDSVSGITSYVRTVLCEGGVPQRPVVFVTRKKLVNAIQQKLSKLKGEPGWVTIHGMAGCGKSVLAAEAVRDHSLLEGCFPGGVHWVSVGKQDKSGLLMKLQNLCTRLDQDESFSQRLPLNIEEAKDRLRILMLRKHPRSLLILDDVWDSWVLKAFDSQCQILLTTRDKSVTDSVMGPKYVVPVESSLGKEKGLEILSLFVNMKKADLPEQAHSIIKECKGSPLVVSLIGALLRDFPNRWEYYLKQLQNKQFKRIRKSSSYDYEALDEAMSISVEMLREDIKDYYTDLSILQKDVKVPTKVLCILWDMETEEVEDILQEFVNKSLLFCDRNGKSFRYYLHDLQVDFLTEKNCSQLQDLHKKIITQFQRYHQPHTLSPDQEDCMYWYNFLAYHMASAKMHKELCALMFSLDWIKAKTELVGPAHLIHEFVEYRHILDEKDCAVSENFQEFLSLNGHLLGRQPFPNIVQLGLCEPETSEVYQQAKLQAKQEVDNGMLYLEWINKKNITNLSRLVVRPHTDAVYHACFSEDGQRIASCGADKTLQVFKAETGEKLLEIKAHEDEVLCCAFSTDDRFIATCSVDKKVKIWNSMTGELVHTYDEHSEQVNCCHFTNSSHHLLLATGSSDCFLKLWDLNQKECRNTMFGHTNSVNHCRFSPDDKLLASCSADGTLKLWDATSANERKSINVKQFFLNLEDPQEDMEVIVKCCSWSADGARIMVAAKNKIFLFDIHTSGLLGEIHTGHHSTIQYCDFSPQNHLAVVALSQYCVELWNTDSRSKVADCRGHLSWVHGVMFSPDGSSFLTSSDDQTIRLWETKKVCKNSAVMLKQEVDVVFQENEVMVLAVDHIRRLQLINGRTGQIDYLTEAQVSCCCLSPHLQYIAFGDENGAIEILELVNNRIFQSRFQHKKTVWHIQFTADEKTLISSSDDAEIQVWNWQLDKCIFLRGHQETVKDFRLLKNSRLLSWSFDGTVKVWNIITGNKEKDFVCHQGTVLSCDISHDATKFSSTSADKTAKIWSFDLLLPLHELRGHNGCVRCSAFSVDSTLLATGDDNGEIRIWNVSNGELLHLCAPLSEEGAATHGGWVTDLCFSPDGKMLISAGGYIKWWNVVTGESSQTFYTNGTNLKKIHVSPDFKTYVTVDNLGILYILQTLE
The class given is functional.

Assay [13] has as its target T6, Protein RecA (Mycobacterium tuberculosis, UniProt P9WHJ3).
T6 sequence (P9WHJ3 whole entry): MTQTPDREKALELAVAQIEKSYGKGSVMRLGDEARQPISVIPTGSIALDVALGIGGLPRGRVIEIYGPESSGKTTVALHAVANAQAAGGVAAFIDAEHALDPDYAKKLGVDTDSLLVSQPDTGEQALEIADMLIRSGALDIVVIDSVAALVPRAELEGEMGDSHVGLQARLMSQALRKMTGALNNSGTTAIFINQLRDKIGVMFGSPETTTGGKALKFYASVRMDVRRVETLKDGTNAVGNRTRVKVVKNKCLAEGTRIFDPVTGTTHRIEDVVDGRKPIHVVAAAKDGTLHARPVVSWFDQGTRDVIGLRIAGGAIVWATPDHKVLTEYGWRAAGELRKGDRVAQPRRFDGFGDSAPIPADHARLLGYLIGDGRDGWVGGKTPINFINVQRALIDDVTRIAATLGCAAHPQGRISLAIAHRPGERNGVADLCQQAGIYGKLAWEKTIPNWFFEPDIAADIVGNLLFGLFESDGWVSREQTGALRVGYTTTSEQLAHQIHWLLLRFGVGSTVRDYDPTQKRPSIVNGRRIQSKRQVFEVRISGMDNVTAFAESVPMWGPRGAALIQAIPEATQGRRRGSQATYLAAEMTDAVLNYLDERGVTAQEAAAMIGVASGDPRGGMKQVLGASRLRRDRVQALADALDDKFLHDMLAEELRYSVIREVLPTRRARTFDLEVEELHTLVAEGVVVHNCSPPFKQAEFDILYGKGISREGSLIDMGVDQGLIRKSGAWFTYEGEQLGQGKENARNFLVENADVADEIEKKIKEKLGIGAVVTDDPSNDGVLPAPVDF
Briefly: Fluorescence Cell-Free Homogeneous Dose Retest to Identify Inhibitors of RecA-Intein Splicing Activity. [Related pubchem assays (depositor defined):AID2097, AID2223, AID489010, AID492950]. It counts as functional.

A short description of assay [14]: luciferase reporter signal suppression in cells – H4 neuroglioma cells, luminescence, dose response (AID 1990). It counts as functional, cell-based. A general note: Reporter assays use an easily measured gene product as a stand-in for the process of interest.
Assay [15] is described as follows: Luminescence Cell-Based Dose Response HTS to Identify Inhibitors of 5'UTR Stem-Loop Driven Prion Protein mRNA Translation in H4 Neuroglioblastoma Cells. [Related pubchem assays: 1827 (Project Summary), 1813 (Primary HTS)]. The class given is functional.
For assay [16], the system named is Vero. The assay can be described thus: mammalian cell viability reduction – secondary assay, cytotoxicity control for West Nile virus antiviral project, dose response (AID 1650). The class given is functional. Conditions: Chlorocebus sabaeus.
Assay [17] in a line: alpha-synuclein stem-loop luciferase translation blockers – H4 neuroglioma cells, luminescence, confirmation (AID 1988). The class given is functional, cell-based.

SMILES strings stand for the structures. Calls of active or inactive are those of the source.

Usually IC50 stands for the concentration needed to halve the response being measured. As a reminder, the EC50 is the concentration at which the effect is half-maximal. The AC50 is the concentration giving half of the maximal activity seen. Usually CC50 stands for the concentration giving 50% cytotoxicity.

With `CCOc1ccc(N(C(=O)c2snc(C(N)=O)c2N)C(CC)C(=O)NC2CCCC2)cc1` (stereo unspecified), the IC50 was > 20 µM (inactive) in assay [1], 10.1 µM (active) in [2] and 12.3 µM (active) in assay [3].
Consider `CCC(=O)NC(=S)NNC(=O)c1ccc(NC(=O)c2ccccc2)cc1`, for which the IC50 was > 20 µM (inactive) in assay [1], 11.4 µM (active) in assay [2] and 3.81 µM (active) in [3].
With `Cc1ccc(NC2Nc3cc(C)nn3S2)c(C)c1` (stereo unspecified), the results for the half-inhibitory concentration (IC50) in assay [4], in assay [5] and in [6] were 11.2 µM (active), > 50 µM (inactive) and > 100 µM (inactive), respectively.
For `CCc1ccc(NC(=O)CSc2nc3ccsc3c(=O)n2Cc2ccc(OC)cc2)cc1`, the IC50 in [7] is > 32 µM (inactive).
Take `O=[N+]([O-])c1cccc(/C=N/c2cccc3ccccc23)c1O`: the values for the EC50 in assay [8], in [10] and in assay [13] were 107 µM (active), 3.78 µM (active) and 41.9 µM (active), respectively. Also, the figures for the IC50 in assay [9] and in assay [12] were 20.4 µM (active) and 56.6 µM (active), respectively. Besides, the AC50 in assay [11] is 54.6 µM (active).
For `COc1ccc(NC(=O)C(=O)N/N=C\c2ccc(CNC(=O)C(=O)Nc3ccc(C)c(C)c3)o2)c(OC)c1`, the half-maximal effective concentration (EC50) is 6.59 µM (active) in assay [14], 9.34 µM (active) in assay [15] and 5.4 µM (active) in [17]. Moreover, in assay [9], the IC50 was 30.4 µM (active). Moreover, in assay [16], the CC50 is 15.1 µM (active).
